Data from PubChem BioAssay AID2060346 (Molecular Pharmacology Branch, DTP, NCI, 2025).
Values joined by “and” are separate entries in the source; they are usually repeats but may differ in a detail not shown here. Equal entries are not always repeated.

Test system: CN0375-F725-PDC multi-cell spheroids, viability
Test: Anticancer human tumor CN0375-F725-PDC patient-derived colon carcinoma cell line growth inhibition [TAK]
Conditions: for viability, T/C: stronger effect = lower value
Source text: Combinatorial screen of targeted agents with TAK-243 and ipatasertib in multi-cell type tumor spheroids
A high-throughput screen of multi-cell type tumor spheroids was designed to identify active combinations of targeted small molecules and TAK-243 or ipatasertib. Complex spheroids include a stromal component modeled by human endothelial cells (HUVEC) and fibroblasts modeled by human mesenchymal stem cells (MSCs). The concentration ranges selected for each drug and investigational agent were based upon clinically achievable concentrations if the clinical Cmax of the agent was known.
Compounds. The drugs and investigational agents: TAK-243 (785004), ipatasertib (767898), everolimus (733504), selumetinib (741078), bortezomib (756655), trametinib (758246), ixazomib (758254), vemurafenib (761431), dabrafenib (764134), sapanisertib (764658), alpelisib (765974), and copanlisib (816437), were obtained from the National Cancer Institute (NCI) Developmental Therapeutics Program Chemical Repository. The FDA-approved anticancer drug set is available from the NCI Developmental Therapeutics Program. […] The stock solutions were prepared in dimethyl sulfoxide (DMSO, Sigma-Aldrich, St. Louis, MO, cat. D2650) at 800-fold the tested concentration and stored at -70 degrees C prior to their use. All drugs and investigational agents were tested over a range starting from a high concentration at or near the clinical Cmax and decreasing in half-log increments. If the clinical Cmax for an agent had not been determined, the highest concentration tested was 10 microM.
NCI60 Cell Culture. NCI60 cell lines were obtained from the NCI Developmental Therapeutics Program Tumor Repository. For each lot of cells, the Repository performed Applied Biosystems AmpFLSTR Identifiler testing with PCR amplification to confirm consistency with the published Identifier STR profile for each cell line. Cells were kept in continuous culture for no more than 20 passages. The optimal seeding densities for each of the cell lines at each time point assessed were determined prior to performing the concentration response studies. Briefly, the NCI60 human tumor lines were grown as monolayers in RPMI 1640 medium supplemented with 10% FBS and 2 mmol/L L-glutamine.
An additional 2 lines were from the NCI60 cell line panel including melanomas, MALME-3M and SK-MEL-2. Pooled donor human umbilical vein endothelial cells (HUVEC, Lonza, cat. CC-2519) and human mesenchymal stem cells (hMSC, Lonza, cat. PT-2501) were purchased from Lonza (Walkersville, MD).
PDMR cell lines were grown in complete medium (DC medium): Dulbecco's modified Eagle's medium (DMEM)/F12 supplemented with 5% fetal bovine serum (FBS), 2 mM L-glutamine, 100 U/mL penicillin and 100 µg/ml streptomycin, 0.4 µg/ml hydrocortisone, 10 ng/ml epidermal growth factor (EGF) recombinant human protein, 24 µg/mL adenine, and 0.1 mg/mL primocin. During culture from frozen stock vials, PDMR cells were cultured in the same medium containing 10 µM Y-27632 (see Table 3). The PDCs were cultured in complete DMEM/F12 media without 10 microM Y-27632 dihydrochloride for at least two passages prior to the screen. The pooled donor HUVEC and hMSC were cultured in endothelial cell growth medium 2 (PromoCell, Heidelberg, Germany, cat. C-22011) and mesenchymal stem cell growth medium 2 (PromoCell, cat. C-28009), respectively. For all experiments, HUVEC and hMSC were used at passages </=5.
For the pre-screen, cell seeding densities were determined from a titration spanning the range from 5,000 to 313 cells per well. The mct-spheroids including 60% malignant cells, 25% HUVEC and 15% MSC dispensed as a mixture into U-bottom Ultra-Low Attachment 384-well plates (Corning, NY)
High-throughput Drug Combination Screening.
Prior to their inoculation into 384-well plates, malignant cells, HUVEC, and hMSC were removed from T flasks using TrypLE express (Thermo Fisher Scientific, cat. 12605036) and harvested by centrifugation for 5 min at 233 x g. […]

[1] = curve of first compound, second compound 0.3 µM
[2] = curve of first compound, second compound 0.949 µM
[3] = curve of first compound, second compound 3 µM
[4] = curve of first compound, second compound 9.49 µM
[5] = curve of first compound, second compound 30 µM
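Further: spheroids exposed to drugs for seven days.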
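Wherever viability, T/C is given: 100% = DMSO vehicle control wells.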

Compound `Cn1cnc2c(F)c(Nc3ccc(Br)cc3Cl)c(C(=O)NOCCO)cc21` + CC(C)NCC(C(=O)N1CCN(c2ncnc3c2C(C)CC3O)CC1)c1ccc(Cl)cc1 has an IC50 [1] of 260 nM, an IC50 [2] of 222 nM and an IC50 [3] of 161 nM. For the same compound, the IC50 [4] was 178 nM, the IC50 [5] was 71.2 nM and the viability, T/C (second compound 0.3 µM, first compound 0.00949 µM) was 91.4%. It also gave a viability, T/C (second compound 0.3 µM, first compound 0.03 µM) of 75.3%, a viability, T/C (second compound 0.3 µM, first compound 0.0949 µM) of 58.8% and a viability, T/C (second compound 0.3 µM, first compound 0.3 µM) of 50%. For the same compound, the viability, T/C (second compound 0.3 µM, first compound 0.949 µM) was 38.6%, the viability, T/C (second compound 0.3 µM, first compound 3 µM) was 30.6% and the viability, T/C (second compound 0.949 µM, first compound 0.00949 µM) was 83.5%. The viability, T/C (second compound 0.949 µM, first compound 0.03 µM) was 78.6%, the viability, T/C (second compound 0.949 µM, first compound 0.0949 µM) was 57.6% and the viability, T/C (second compound 0.949 µM, first compound 0.3 µM) was 48.3%. For the same compound, the viability, T/C (second compound 0.949 µM, first compound 0.949 µM) was 36%, the viability, T/C (second compound 0.949 µM, first compound 3 µM) was 31.1% and the viability, T/C (second compound 3 µM, first compound 0.00949 µM) was 79.6%. The viability, T/C (second compound 3 µM, first compound 0.03 µM) was 72%, the viability, T/C (second compound 3 µM, first compound 0.0949 µM) was 56.9% and the viability, T/C (second compound 3 µM, first compound 0.3 µM) was 41.4%. For the same compound, the viability, T/C (second compound 3 µM, first compound 0.949 µM) was 34.2%, the viability, T/C (second compound 3 µM, first compound 3 µM) was 29.3% and the viability, T/C (second compound 9.49 µM, first compound 0.00949 µM) was 77.8%. It also gave a viability, T/C (second compound 9.49 µM, first compound 0.03 µM) of 69.4%, a viability, T/C (second compound 9.49 µM, first compound 0.0949 µM) of 58.2% and a viability, T/C (second compound 9.49 µM, first compound 0.3 µM) of 42.7%. It also gave a viability, T/C (second compound 9.49 µM, first compound 0.949 µM) of 32.7%, a viability, T/C (second compound 9.49 µM, first compound 3 µM) of 23.2% and a viability, T/C (second compound 30 µM, first compound 0.00949 µM) of 66%. For the same compound, the viability, T/C (second compound 30 µM, first compound 0.03 µM) was 64.2%, the viability, T/C (second compound 30 µM, first compound 0.0949 µM) was 43.5% and the viability, T/C (second compound 30 µM, first compound 0.3 µM) was 31.6%. For the same compound, the viability, T/C (second compound 30 µM, first compound 0.949 µM) was 22.1% and the viability, T/C (second compound 30 µM, first compound 3 µM) was 16.1%.
In the case of `CC(C)n1nc(-c2ccc3oc(N)nc3c2)c2c(N)ncnc21`, the viability, T/C (compound 0.000316 µM) is reported as 109% and 106%, the viability, T/C (compound 0.001 µM) is reported as 105% and 101% and the viability, T/C (compound 0.00316 µM) is reported as 91.7% and 93.4%. The viability, T/C (compound 0.01 µM) was 85.5% and 83.8%, the viability, T/C (compound 0.0316 µM) was 73.1% and 76.7% and the viability, T/C (compound 0.1 µM) was 58.9% and 61.4%. For the same compound, the IC50 (curve of compound) was > 100 nM.
In the case of `Cn1cnc2c(F)c(Nc3ccc(Br)cc3Cl)c(C(=O)NOCCO)cc21`, the viability, T/C (compound 0.00949 µM) is reported as 89.7% and 95.5%, the viability, T/C (compound 0.03 µM) is reported as 79.8% and 82.5% and the viability, T/C (compound 0.0949 µM) is reported as 64.8% and 61.1%. The viability, T/C (compound 0.3 µM) was 55.1% and 49.1%, the viability, T/C (compound 0.949 µM) was 40.8% and 41.4% and the viability, T/C (compound 3 µM) was 33.3% and 34.5%. For the same compound, the IC50 (curve of compound) was 420 nM and 267 nM.
`COc1c(OCCCN2CCOCC2)ccc2c3n(c(=NC(=O)c4cnc(N)nc4)nc12)CCN3` + CC(C)NCC(C(=O)N1CCN(c2ncnc3c2C(C)CC3O)CC1)c1ccc(Cl)cc1 was tested, and the IC50 [1] was 247 nM, the IC50 [2] was 211 nM and the IC50 [3] was 206 nM. It also gave an IC50 [4] of 154 nM, an IC50 [5] of 84.3 nM and a viability, T/C (second compound 0.3 µM, first compound 0.00316 µM) of 103%. The viability, T/C (second compound 0.3 µM, first compound 0.01 µM) was 88.3%, the viability, T/C (second compound 0.3 µM, first compound 0.0316 µM) was 81.1% and the viability, T/C (second compound 0.3 µM, first compound 0.1 µM) was 61.7%. It also gave a viability, T/C (second compound 0.3 µM, first compound 0.316 µM) of 45.6%, a viability, T/C (second compound 0.3 µM, first compound 1 µM) of 34.7% and a viability, T/C (second compound 0.949 µM, first compound 0.00316 µM) of 100%. The viability, T/C (second compound 0.949 µM, first compound 0.01 µM) was 91.8%, the viability, T/C (second compound 0.949 µM, first compound 0.0316 µM) was 80.1% and the viability, T/C (second compound 0.949 µM, first compound 0.1 µM) was 61.3%. For the same compound, the viability, T/C (second compound 0.949 µM, first compound 0.316 µM) was 42.7%, the viability, T/C (second compound 0.949 µM, first compound 1 µM) was 37.6% and the viability, T/C (second compound 3 µM, first compound 0.00316 µM) was 98.8%. The viability, T/C (second compound 3 µM, first compound 0.01 µM) was 83.1%, the viability, T/C (second compound 3 µM, first compound 0.0316 µM) was 78.5% and the viability, T/C (second compound 3 µM, first compound 0.1 µM) was 60.4%. It also gave a viability, T/C (second compound 3 µM, first compound 0.316 µM) of 41.9%, a viability, T/C (second compound 3 µM, first compound 1 µM) of 33% and a viability, T/C (second compound 9.49 µM, first compound 0.00316 µM) of 92.7%. It also gave a viability, T/C (second compound 9.49 µM, first compound 0.01 µM) of 80.2%, a viability, T/C (second compound 9.49 µM, first compound 0.0316 µM) of 69.9% and a viability, T/C (second compound 9.49 µM, first compound 0.1 µM) of 55.5%. For the same compound, the viability, T/C (second compound 9.49 µM, first compound 0.316 µM) was 40.4%, the viability, T/C (second compound 9.49 µM, first compound 1 µM) was 34.8% and the viability, T/C (second compound 30 µM, first compound 0.00316 µM) was 76.2%. The viability, T/C (second compound 30 µM, first compound 0.01 µM) was 70.5%, the viability, T/C (second compound 30 µM, first compound 0.0316 µM) was 62% and the viability, T/C (second compound 30 µM, first compound 0.1 µM) was 47.8%. The viability, T/C (second compound 30 µM, first compound 0.316 µM) was 37.5% and the viability, T/C (second compound 30 µM, first compound 1 µM) was 32.6%.
